Laboratory results taken from patent US9416095B2, “Salts, crystals, complexes, and derivatives of threonine diacetic acid, a process to prepare threonine diacetic acid, and the use thereof” (Akzo Nobel Chemicals International B.V., priority 2013, dated 2016).

Columns and labels:
Type in all cases: physicochemical
[1] = Cyclisation to the 6-oxomorpholine ring-closed form in DMSO-d6/TFA, monitored by 1H NMR; conditions: 30% aqueous disodium salt in DMSO-d6/TFA 80:20 w/w, ambient temperature
Method: A 30% aqueous solution of disodium threonine diacetate (129 mg) was mixed well with a DMSO-d6/TFA solution (2761 mg, 80:20 w/w) and changes in the obtained mixture were monitored by ^1H NMR at ambient temperature. The steady state was reached after 40 minutes with a conversion of 90% of THDA to cyclic-THDA.
A 30% aqueous solution of disodium serine diacetate (136 mg) was mixed well with a DMSO-d6/TFA solution (2911 mg, 80:20 w/w) and changes in the obtained mixture were monitored by ^1H NMR at ambient temperature. The steady state was reached after 100 minutes with a conversion of 43% of SerDA to cyclic-SerDA. The above experiments support that THDA can be used in applications that relate to dissolving carbonate or sequestering iron, such as use in the oil field (e.g. dissolving CaCO3 and controlling iron in subterranean treatment), use in a feed, food or micronutrient composition (e.g. complexing iron and calcium for delivery to growing substrates), use in detergents and water treatments (e.g. sequestering calcium from water to soften water and sequestering iron present in stains), and many more uses.

[2] = Potentiometric titration with FeCl3, iron total sequestering value (Fe-TSV)
Description: Potentiometric titration of THDA with FeCl3 at pH 3-4 and 11.5 gave the iron total sequestering values (Fe-TSV) of 37.8 and 27.8%, respectively. […] All Fe(III) is bound by THDA at pH 3-4.

[3] = Dissolving insoluble calcium salts (CaCO3 stirred with THDA.Na3 solution, calcium in filtrate by ICP)
Method: A mixture of CaCO3 (1.26 g, […]), 37.8 wt % THDA.Na3 in water (15 g, 18.8 mM), and water (45 g) was vigorously stirred for 6 h. The experiment was performed at room temperature and at 50° C. Samples (1 ml) were taken from the mixture every 0.5 h and filtered through a 0.45 μm filter. The concentration of calcium in the filtered samples was determined using the ICP method.

O=C(O)CN(CC(=O)O)[C@@H](CO)C(=O)O [SerDA, serine-N,N-diacetic acid, reference compound]
conversion to cyclic form at steady state [1]: 43%
time to reach steady state of cyclisation [1]: 100 min

C[C@@H](O)[C@@H](C(=O)O)N(CC(=O)O)CC(=O)O [THDA, threonine-N,N-diacetic acid]
conversion to cyclic form at steady state [1]: 90%
time to reach steady state of cyclisation [1]: 40 min
iron total sequestering value (Fe-TSV) ([2]; pH 3-4): 37.8%
iron total sequestering value (Fe-TSV) ([2]; pH 11.5): 27.8%

C[C@@H](O)[C@@H](C(=O)O)N(CC(=O)O)CC(=O)O.[Na+].[Na+].[Na+] [THDA.Na3, Trisodium Threonine Diacetate]
speed of CaCO3 dissolution at 50° C. versus room temperature ([3]; 50° C.): noticeably faster
dissolution of CaCO3 ([3]; CaCO3 12.6 mM, THDA.Na3 18.8 mM in water, stirred 6 h, room temperature and 50° C.): significant amount
